Target: T1, PTP1B (Homo sapiens, UniProt P18031)
T1 construct: gene PTPN1; recombinant PTP1B protein
T1 sequence (P18031 1-435): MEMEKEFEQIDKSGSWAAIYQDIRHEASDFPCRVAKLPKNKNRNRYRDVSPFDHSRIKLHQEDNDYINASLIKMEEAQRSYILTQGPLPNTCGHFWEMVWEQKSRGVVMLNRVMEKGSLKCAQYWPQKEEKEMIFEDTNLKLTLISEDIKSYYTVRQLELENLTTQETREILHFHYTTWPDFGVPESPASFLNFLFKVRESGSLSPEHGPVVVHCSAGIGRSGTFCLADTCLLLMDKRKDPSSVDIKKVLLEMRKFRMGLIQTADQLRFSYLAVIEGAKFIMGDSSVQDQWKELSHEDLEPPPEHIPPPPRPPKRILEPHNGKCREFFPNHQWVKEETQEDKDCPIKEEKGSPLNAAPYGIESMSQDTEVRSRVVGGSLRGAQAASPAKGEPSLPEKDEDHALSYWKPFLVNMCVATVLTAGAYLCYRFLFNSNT
Assay: p-nitrophenyl phosphate phosphatase assay with recombinant PTP1B; supported by CETSA in HCT116 lysates (ΔTm -4.[…] °C)
Assay type: biochemical

CCCCCC[n+]1ccn2[c]1[Pt-2]1([c]3ccccc3-c3cccc[n+]31)[c]1n(cc[n+]1CCCCCC)CCC2 [Pt-ER, PlatinER]
IC50: 20.6 ± 1.8 µM

Reference: publication PMC12833861, “Organoplatinum(II) Type II Immunogenic Cell Death Inducers Target Protein Tyrosine Phosphatase 1B to Drive Immunogenicity” (Journal of the American Chemical Society, 2025)
